Values joined by “and” are separate entries in the source; they are usually repeats but may differ in a detail not shown here. Equal entries are not always repeated. “Also recorded” adds a separate entry of the source. Where two headings read alike, the source gives them in different places.
Legend:
[1] = system: TTX-sensitive Nav channels in mouse DRG neuron; assay type: cell-based
hNav1.7 [2] = target: T1, hNav1.7 (Homo sapiens, UniProt Q15858); test: cell-based; assay type: cell-based; conditions: PatchXpress, read-out: PX hNav1.7 Tonic IC50
T1 sequence (Q15858 whole entry): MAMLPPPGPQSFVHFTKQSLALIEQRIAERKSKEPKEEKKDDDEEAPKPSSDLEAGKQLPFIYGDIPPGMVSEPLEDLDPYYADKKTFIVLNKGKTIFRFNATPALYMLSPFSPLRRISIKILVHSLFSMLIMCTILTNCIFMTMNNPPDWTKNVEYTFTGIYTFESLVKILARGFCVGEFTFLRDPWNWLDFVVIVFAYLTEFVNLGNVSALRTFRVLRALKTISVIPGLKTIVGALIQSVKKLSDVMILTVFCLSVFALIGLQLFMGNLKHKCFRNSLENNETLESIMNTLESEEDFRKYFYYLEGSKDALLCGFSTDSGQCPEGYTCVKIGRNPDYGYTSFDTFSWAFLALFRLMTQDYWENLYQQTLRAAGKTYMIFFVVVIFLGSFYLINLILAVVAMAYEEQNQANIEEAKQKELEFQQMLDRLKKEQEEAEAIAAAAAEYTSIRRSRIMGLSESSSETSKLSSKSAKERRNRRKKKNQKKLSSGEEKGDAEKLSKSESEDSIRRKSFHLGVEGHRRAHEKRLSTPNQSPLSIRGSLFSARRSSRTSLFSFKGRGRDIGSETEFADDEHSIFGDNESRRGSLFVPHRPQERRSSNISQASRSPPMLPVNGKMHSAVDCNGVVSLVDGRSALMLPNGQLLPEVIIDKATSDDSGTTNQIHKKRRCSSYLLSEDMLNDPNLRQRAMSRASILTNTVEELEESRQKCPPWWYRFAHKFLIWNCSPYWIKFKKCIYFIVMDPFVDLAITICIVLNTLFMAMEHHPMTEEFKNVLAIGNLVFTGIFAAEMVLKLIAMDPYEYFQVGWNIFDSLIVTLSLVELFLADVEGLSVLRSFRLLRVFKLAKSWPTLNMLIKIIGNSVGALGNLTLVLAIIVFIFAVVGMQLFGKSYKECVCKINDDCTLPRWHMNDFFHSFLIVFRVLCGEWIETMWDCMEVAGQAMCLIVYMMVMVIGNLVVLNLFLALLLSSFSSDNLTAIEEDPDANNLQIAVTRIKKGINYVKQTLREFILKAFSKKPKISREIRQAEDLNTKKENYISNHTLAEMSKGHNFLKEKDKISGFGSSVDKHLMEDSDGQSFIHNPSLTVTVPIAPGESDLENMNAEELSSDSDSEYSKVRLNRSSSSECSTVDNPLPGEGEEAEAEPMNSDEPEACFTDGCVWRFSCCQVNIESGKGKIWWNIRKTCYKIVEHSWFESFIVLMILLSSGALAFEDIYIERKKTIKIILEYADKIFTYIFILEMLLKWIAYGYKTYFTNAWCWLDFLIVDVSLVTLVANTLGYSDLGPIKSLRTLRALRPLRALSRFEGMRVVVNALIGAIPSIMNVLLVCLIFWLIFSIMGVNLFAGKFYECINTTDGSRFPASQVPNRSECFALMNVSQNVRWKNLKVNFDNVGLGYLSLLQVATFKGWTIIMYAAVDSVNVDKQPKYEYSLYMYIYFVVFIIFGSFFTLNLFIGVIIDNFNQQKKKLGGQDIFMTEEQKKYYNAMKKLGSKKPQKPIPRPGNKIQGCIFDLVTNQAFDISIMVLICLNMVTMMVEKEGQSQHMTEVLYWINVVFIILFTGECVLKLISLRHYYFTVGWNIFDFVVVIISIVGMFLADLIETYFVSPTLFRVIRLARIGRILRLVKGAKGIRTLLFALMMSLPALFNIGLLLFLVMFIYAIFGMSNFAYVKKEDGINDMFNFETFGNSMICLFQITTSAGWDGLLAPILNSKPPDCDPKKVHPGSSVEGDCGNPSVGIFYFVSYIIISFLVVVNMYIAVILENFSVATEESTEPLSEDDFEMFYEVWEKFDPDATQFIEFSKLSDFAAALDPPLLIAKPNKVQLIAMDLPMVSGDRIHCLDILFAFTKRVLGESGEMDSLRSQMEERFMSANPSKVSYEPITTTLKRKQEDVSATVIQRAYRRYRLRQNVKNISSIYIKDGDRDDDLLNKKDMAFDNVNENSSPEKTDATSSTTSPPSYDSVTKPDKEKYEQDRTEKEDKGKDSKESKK

hNav1.5 [3] = target: T2, hNav1.5 (Homo sapiens, UniProt Q14524); test: cell-based; conditions: for IC50: PatchXpress, read-out: PX hNav1.5 Tonic IC50
hNav1.5 [4] = target: T2, hNav1.5; test: cell-based; conditions: IonWorks Quattro; read-out: IC50 Nav1.5
hNav1.3 = hNav1.3 (Homo sapiens, UniProt Q9NY46); test: cell-based; conditions: IonWorks Quattro; read-out: IC50 Nav1.3
Chain of hNav1.3 (Q9NY46 whole entry): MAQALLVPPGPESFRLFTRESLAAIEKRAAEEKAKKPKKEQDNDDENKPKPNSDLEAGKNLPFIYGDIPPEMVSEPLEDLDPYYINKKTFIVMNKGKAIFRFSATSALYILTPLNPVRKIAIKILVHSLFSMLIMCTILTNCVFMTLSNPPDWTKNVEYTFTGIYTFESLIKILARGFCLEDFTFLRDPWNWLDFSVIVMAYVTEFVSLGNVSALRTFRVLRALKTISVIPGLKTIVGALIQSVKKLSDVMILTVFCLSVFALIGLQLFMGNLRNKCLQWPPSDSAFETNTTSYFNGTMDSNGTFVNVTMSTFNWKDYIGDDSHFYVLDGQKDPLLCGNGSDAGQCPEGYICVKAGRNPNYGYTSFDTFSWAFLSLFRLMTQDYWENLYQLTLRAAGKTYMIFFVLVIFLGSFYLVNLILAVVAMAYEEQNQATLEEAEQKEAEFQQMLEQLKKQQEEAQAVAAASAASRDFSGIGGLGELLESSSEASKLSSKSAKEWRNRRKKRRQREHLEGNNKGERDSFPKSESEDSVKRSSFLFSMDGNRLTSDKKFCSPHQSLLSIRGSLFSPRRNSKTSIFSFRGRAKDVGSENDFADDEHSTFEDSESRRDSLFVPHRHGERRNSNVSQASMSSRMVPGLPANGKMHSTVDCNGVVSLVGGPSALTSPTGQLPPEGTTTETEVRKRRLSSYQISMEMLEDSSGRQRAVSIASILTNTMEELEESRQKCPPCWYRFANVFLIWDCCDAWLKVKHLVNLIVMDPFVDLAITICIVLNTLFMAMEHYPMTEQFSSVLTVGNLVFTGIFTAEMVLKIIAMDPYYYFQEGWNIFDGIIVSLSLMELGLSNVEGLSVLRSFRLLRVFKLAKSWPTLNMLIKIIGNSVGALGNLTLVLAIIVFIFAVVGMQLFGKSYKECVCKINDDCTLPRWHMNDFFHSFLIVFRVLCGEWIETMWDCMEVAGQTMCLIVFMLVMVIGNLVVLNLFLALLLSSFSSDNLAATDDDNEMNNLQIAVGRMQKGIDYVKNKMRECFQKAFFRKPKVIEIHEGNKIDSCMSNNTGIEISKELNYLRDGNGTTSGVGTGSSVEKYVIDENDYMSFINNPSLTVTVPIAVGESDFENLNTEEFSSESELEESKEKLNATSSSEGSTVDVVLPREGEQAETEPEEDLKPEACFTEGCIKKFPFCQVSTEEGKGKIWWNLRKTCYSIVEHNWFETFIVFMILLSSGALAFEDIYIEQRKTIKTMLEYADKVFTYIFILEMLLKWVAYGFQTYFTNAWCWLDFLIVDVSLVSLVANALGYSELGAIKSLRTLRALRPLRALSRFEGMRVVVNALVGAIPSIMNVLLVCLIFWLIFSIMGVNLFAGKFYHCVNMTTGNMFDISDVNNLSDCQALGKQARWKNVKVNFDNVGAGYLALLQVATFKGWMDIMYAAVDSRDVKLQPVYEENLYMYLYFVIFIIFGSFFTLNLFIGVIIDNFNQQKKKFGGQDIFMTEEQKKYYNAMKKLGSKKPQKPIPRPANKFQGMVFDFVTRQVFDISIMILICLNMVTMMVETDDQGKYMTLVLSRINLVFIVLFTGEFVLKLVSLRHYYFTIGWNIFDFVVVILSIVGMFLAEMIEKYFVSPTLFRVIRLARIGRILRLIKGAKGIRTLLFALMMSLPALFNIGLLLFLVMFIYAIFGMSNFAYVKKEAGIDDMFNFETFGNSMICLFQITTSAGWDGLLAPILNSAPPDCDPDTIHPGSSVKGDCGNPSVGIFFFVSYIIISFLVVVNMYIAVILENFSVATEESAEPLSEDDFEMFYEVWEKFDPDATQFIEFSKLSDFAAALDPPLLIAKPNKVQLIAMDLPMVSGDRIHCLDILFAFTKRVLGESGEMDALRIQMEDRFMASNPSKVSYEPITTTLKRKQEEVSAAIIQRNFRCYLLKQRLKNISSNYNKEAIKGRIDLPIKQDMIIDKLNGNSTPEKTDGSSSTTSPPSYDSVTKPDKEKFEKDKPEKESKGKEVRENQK

hNav1.4 [5] = target: T3, hNav1.4 (Homo sapiens, UniProt P35499); test: cell-based; conditions: for IC50: IonWorks Quattro, read-out: IC50 Nav1.4; for Nav1.4/Nav1.7: ratio of IonWorks Quattro IC50 values
hNav1.4 [6] = target: T3, hNav1.4; test: cell-based; conditions: for IC50: PatchXpress, read-out: PX hNav1.4 Tonic IC50
hNav1.7 [7] = target: T1, hNav1.7; test: cell-based; conditions: IonWorks Quattro; read-out: IC50 Nav1.7
[8] = * = at high concentrations compound would wash off slowly or not at all

C#CC[C@H](N)C(=O)NCCCC[C@@H]1NC(=O)[C@H](CCCNC(=N)N)NC(=O)[C@H](CCCCN)NC(=O)[C@H](CO)NC(=O)[C@H](CC(=O)O)NC(=O)[C@@H]2CSSC[C@@H]3NC(=O)[C@H](CCCNC(=N)N)NC(=O)[C@H](CC(C)C)NC(=O)CNC(=O)[C@H](CCC(=O)O)NC(=O)[C@H](CSSC[C@H](NC(=O)[C@H](Cc4ccc(O)cc4)NC(=O)[C@@H](N)CC#N)C(=O)N[C@@H](CCC(N)=O)C(=O)N[C@@H](CCCCN)C(=O)N[C@@H](Cc4c[nH]c5ccccc45)C(=O)N[C@@H](CCCC)C(=O)N[C@@H](Cc4c[nH]c5ccccc45)C(=O)N[C@@H]([C@@H](C)O)C(=O)N2)NC(=O)[C@H](CSSC[C@@H](C(=O)N[C@@H](CCCNC(=N)N)C(=O)N[C@@H](CCCCN)C(=O)N[C@@H](CCC(=O)O)C(=O)N[C@H](C(N)=O)[C@@H](C)CC)NC(=O)[C@H](Cc2c[nH]c4ccccc24)NC(=O)[C@H](CC(C)C)NC(=O)[C@H](CCCCN)NC3=O)NC1=O [SEQ ID NO: 392, CyA-[Nle6,Lys(Pra)14,Glu28]JzTx-V(1-29)]
potency relative to JzTx-V (less potent) [1]: about 3 fold
block of TTX-sensitive Nav current ([1]; 300 nM SEQ ID NO:392, held at −88 mV): blocked most TTX-sensitive Nav current; also recorded: almost complete inhibition

C#CC[C@@H]1NC(=O)[C@@H]2CSSC[C@H](NC(=O)[C@H](Cc3ccc(O)cc3)NC(=O)[C@@H](N)CC#N)C(=O)N[C@@H](CCC(N)=O)C(=O)N[C@@H](CCCCN)C(=O)N[C@@H](Cc3c[nH]c4ccccc34)C(=O)N[C@@H](CCCC)C(=O)N[C@@H](Cc3c[nH]c4ccccc34)C(=O)N[C@@H]([C@@H](C)O)C(=O)N[C@H]3CSSC[C@H](NC(=O)[C@H](CCCNC(=N)N)NC(=O)[C@H](CC(C)C)NC(=O)CNC1=O)C(=O)N[C@@H](CCCCN)C(=O)N[C@@H](CC(C)C)C(=O)N[C@@H](Cc1c[nH]c4ccccc14)C(=O)N[C@H](C(=O)N[C@@H](CCCNC(=N)N)C(=O)N[C@@H](CCCCN)C(=O)N[C@@H](CCC(=O)O)C(=O)N[C@H](C(N)=O)[C@@H](C)CC)CSSC[C@H](NC(=O)[C@H](C)NC(=O)[C@H](CCCNC(=N)N)NC(=O)[C@H](CCCCN)NC(=O)[C@H](CO)NC(=O)[C@H](CC(=O)O)NC3=O)C(=O)N2 [SEQ ID NO: 395, CyA-[Nle6,Pra17,Glu28]JzTx-V(1-29)]
block of TTX-sensitive Nav current ([1]; 300 nM SEQ ID NO:395, held at −77 mV): fully blocked TTX-sensitive Nav current; also recorded: complete inhibition
potency relative to JzTx-V (more potent) ([1]; TTX-sensitive current, mouse DRG neurons): equipotent

CSCC[C@@H]1NC(=O)[C@H](Cc2c[nH]c3ccccc23)NC(=O)[C@H](CCCCN)NC(=O)[C@H](CCC(N)=O)NC(=O)[C@@H](NC(=O)[C@@H](N)Cc2ccc(O)cc2)CSSC[C@@H]2NC(=O)[C@@H]3CSSC[C@@H](C(=O)N[C@@H](CCCNC(=N)N)C(=O)N[C@@H](CCCCN)C(=O)N[C@@H](Cc4ccc(O)cc4)C(=O)N[C@@H](Cc4cccc5ccccc45)C(N)=O)NC(=O)[C@H](Cc4c[nH]c5ccccc45)NC(=O)[C@H](CC(C)C)NC(=O)[C@H](CCCCN)NC(=O)[C@H](CSSC[C@H](NC(=O)[C@H]([C@@H](C)O)NC(=O)[C@H](Cc4c[nH]c5ccccc45)NC1=O)C(=O)N[C@@H](CC(=O)O)C(=O)N[C@@H](CO)C(=O)N[C@@H](CCCCN)C(=O)N[C@@H](CCCNC(=N)N)C(=O)N[C@@H](C)C(=O)N3)NC(=O)[C@H](CCC(=O)O)NC(=O)[C@H](CC(C)C)NC(=O)CNC(=O)[C@H](CCC(=O)O)NC2=O [compound 232]
IC50 (hNav1.7 [2]; [8]): 4.5 nM
IC50 (hNav1.5 [3]; [8]): 2160 nM
Nav1.5/Nav1.7 (hNav1.5 [3]; ratio of PX IC50 values): 480
IC50 (hNav1.5 [4]): 4600 nM
IC50 (hNav1.3): 2100 nM
IC50 (hNav1.4 [5]): 4600 nM
Nav1.4/Nav1.7 (hNav1.4 [5]): 91
IC50 (hNav1.4 [6]; [8]): 1670 nM
IC50 (hNav1.7 [7]): 50 nM

CSCC[C@@H]1NC(=O)[C@H](Cc2c[nH]c3ccccc23)NC(=O)[C@H](CCCCN)NC(=O)[C@H](CCC(N)=O)NC(=O)[C@@H](NC(=O)[C@@H](N)Cc2ccc(O)cc2)CSSC[C@@H]2NC(=O)[C@@H]3CSSC[C@@H](C(=O)N[C@@H](CCCNC(=N)N)C(=O)N[C@@H](CCCCN)C(=O)N[C@@H](Cc4ccc(O)cc4)C(=O)N[C@@H](Cc4ccc5ccccc5c4)C(N)=O)NC(=O)[C@H](Cc4c[nH]c5ccccc45)NC(=O)[C@H](CC(C)C)NC(=O)[C@H](CCCCN)NC(=O)[C@H](CSSC[C@H](NC(=O)[C@H]([C@@H](C)O)NC(=O)[C@H](Cc4c[nH]c5ccccc45)NC1=O)C(=O)N[C@@H](CC(=O)O)C(=O)N[C@@H](CO)C(=O)N[C@@H](CCCCN)C(=O)N[C@@H](CCCNC(=N)N)C(=O)N[C@@H](C)C(=O)N3)NC(=O)[C@H](CCC(=O)O)NC(=O)[C@H](CC(C)C)NC(=O)CNC(=O)[C@H](CCC(=O)O)NC2=O [compound 233]
IC50 (hNav1.7 [2]; [8]): 4.6 nM
IC50 (hNav1.5 [3]; [8]): 1990 nM
IC50 (hNav1.5 [4]): > 5000 nM
IC50 (hNav1.3): 2200 nM
IC50 (hNav1.4 [5]): > 5000 nM
IC50 (hNav1.4 [6]; [8]): 1220 nM
IC50 (hNav1.7 [7]): 44 nM

CSCC[C@@H]1NC(=O)[C@H](Cc2c[nH]c3ccccc23)NC(=O)[C@H](CCCCN)NC(=O)[C@H](CCC(N)=O)NC(=O)[C@@H](NC(=O)[C@@H](N)Cc2ccc(O)cc2)CSSC[C@@H]2NC(=O)[C@@H]3CSSC[C@@H](C(=O)N[C@@H](CCCNC(=N)N)C(=O)N[C@@H](CCCCN)C(=O)N[C@@H](Cc4ccc(O)cc4)C(=O)N[C@@H](CC(C)C)C(N)=O)NC(=O)[C@H](Cc4c[nH]c5ccccc45)NC(=O)[C@H](CC(C)C)NC(=O)[C@H](CCCCN)NC(=O)[C@H](CSSC[C@H](NC(=O)[C@H]([C@@H](C)O)NC(=O)[C@H](Cc4c[nH]c5ccccc45)NC1=O)C(=O)N[C@@H](CC(=O)O)C(=O)N[C@@H](CO)C(=O)N[C@@H](CCCCN)C(=O)N[C@@H](CCCNC(=N)N)C(=O)N[C@@H](C)C(=O)N3)NC(=O)[C@H](CCC(=O)O)NC(=O)[C@H](CC(C)C)NC(=O)CNC(=O)[C@H](CCC(=O)O)NC2=O [compound 238]
IC50 (hNav1.7 [2]; [8]): 2.6 nM
IC50 (hNav1.5 [3]; [8]): 7330 nM
IC50 (hNav1.5 [4]): > 5000 nM
IC50 (hNav1.3): 3000 nM and > 5000 nM
IC50 (hNav1.4 [5]): 4500 nM and > 5000 nM
IC50 (hNav1.4 [6]; [8]): 626 nM
IC50 (hNav1.7 [7]): 84 nM and 230 nM

CCCC[C@H](NC(=O)[C@H](Cc1ccc(O)cc1)NC(=O)[C@H](CCCCN)NC(=O)[C@H](CCCNC(=N)N)NC(=O)[C@@H]1CSSC[C@@H]2NC(=O)[C@H](C)NC(=O)[C@H](CCCNC(=N)N)NC(=O)[C@H](CCCCN)NC(=O)[C@H](CO)NC(=O)[C@H](CC(=O)O)NC(=O)[C@@H]3CSSC[C@H](NC(=O)[C@H](CCC(=O)O)NC(=O)[C@H](CC(C)C)NC(=O)CNC(=O)[C@H](CCC(=O)O)NC(=O)[C@H](CSSC[C@H](NC(=O)[C@@H](N)Cc4ccc(O)cc4)C(=O)N[C@@H](CCC(N)=O)C(=O)N[C@@H](CCCCN)C(=O)N[C@@H](Cc4c[nH]c5ccccc45)C(=O)N[C@@H](CCSC)C(=O)N[C@@H](Cc4c[nH]c5ccccc45)C(=O)N[C@@H]([C@@H](C)O)C(=O)N3)NC2=O)C(=O)N[C@@H](CCCCN)C(=O)N[C@@H](CC(C)C)C(=O)N[C@@H](Cc2c[nH]c3ccccc23)C(=O)N1)C(N)=O [compound 239]
IC50 (hNav1.7 [2]; [8]): 6.2 nM
IC50 (hNav1.5 [3]; [8]): 9770 nM
IC50 (hNav1.5 [4]): > 5000 nM
IC50 (hNav1.3): 4000 nM
IC50 (hNav1.4 [5]): > 5000 nM
IC50 (hNav1.4 [6]; [8]): 786 nM
IC50 (hNav1.7 [7]): 79 nM

CC[C@H](C)[C@H](NC(=O)[C@H](Cc1ccc(O)cc1)NC(=O)[C@H](CCCCN)NC(=O)[C@H](CCCNC(=N)N)NC(=O)[C@@H]1CSSC[C@@H]2NC(=O)[C@H](C)NC(=O)[C@H](CCCNC(=N)N)NC(=O)[C@H](CCCCN)NC(=O)[C@H](CO)NC(=O)[C@H](CC(=O)O)NC(=O)[C@@H]3CSSC[C@H](NC(=O)[C@H](CCC(=O)O)NC(=O)[C@H](CC(C)C)NC(=O)CNC(=O)[C@H](CCC(=O)O)NC(=O)[C@H](CSSC[C@H](NC(=O)[C@@H](N)CCC(=O)O)C(=O)N[C@@H](CCC(N)=O)C(=O)N[C@@H](CCCCN)C(=O)N[C@@H](Cc4c[nH]c5ccccc45)C(=O)N[C@@H](CCSC)C(=O)N[C@@H](Cc4c[nH]c5ccccc45)C(=O)N[C@@H]([C@@H](C)O)C(=O)N3)NC2=O)C(=O)N[C@@H](CCCCN)C(=O)N[C@@H](CC(C)C)C(=O)N[C@@H](Cc2c[nH]c3ccccc23)C(=O)N1)C(N)=O [compound 277]
IC50 (hNav1.7 [2]; [8]): 5.5 nM
IC50 (hNav1.5 [3]; [8]): > 10000 nM
IC50 (hNav1.5 [4]): 2000 nM
IC50 (hNav1.3): > 5000 nM
IC50 (hNav1.4 [5]): > 5000 nM
IC50 (hNav1.4 [6]; [8]): 939 nM
IC50 (hNav1.7 [7]): 210 nM

C#CC[C@@H]1NC(=O)[C@H](CCCNC(=N)N)NC(=O)[C@H](CCCCN)NC(=O)[C@H](CO)NC(=O)[C@H](CC(=O)O)NC(=O)[C@@H]2CSSC[C@@H]3NC(=O)[C@H](CCCNC(=N)N)NC(=O)[C@H](CC(C)C)NC(=O)CNC(=O)[C@H](CCC(=O)O)NC(=O)[C@H](CSSC[C@H](NC(=O)[C@@H](N)Cc4ccc(O)cc4)C(=O)N[C@@H](CCC(N)=O)C(=O)N[C@@H](CCCCN)C(=O)N[C@@H](Cc4c[nH]c5ccccc45)C(=O)N[C@@H](CCCC)C(=O)N[C@@H](Cc4c[nH]c5ccccc45)C(=O)N[C@@H]([C@@H](C)O)C(=O)N2)NC(=O)[C@H](CSSC[C@@H](C(=O)N[C@@H](CCCNC(=N)N)C(=O)N[C@@H](CCCCN)C(=O)N[C@H](C(=O)N[C@H](C(N)=O)[C@@H](C)CC)[C@@H](C)CC)NC(=O)[C@H](Cc2c[nH]c4ccccc24)NC(=O)[C@H](CC(C)C)NC(=O)[C@H](CCCCN)NC3=O)NC1=O [compound 283]
IC50 (hNav1.7 [2]; tonic block): 0.3 nM
IC50 (hNav1.5 [3]; tonic block): 630 nM
IC50 (hNav1.5 [4]): > 7000 nM
IC50 (hNav1.3): 60 nM
IC50 (hNav1.4 [5]): 90 nM
Nav1.4/Nav1.7 (hNav1.4 [5]): 1
IC50 (hNav1.4 [6]; tonic block): 5 nM
Nav1.4/Nav1.7 (hNav1.4 [6]; ratio of PX tonic IC50 values): 17
IC50 (hNav1.7 [7]): 70 nM
